# US9597274B2, “Peptides and their use in the treatment of skin” (Avon Products, Inc., priority 2015, dated 2017)
# Experiments:
# [1] = test system: Human dermal fibroblast cells; test: Pro-collagen I secretion into the media (HTRF human pro-collagen I kit) after 48 h peptide treatment; format: cell-based; details: percent change relative to vehicle control
# Procedure: (§1) Human dermal fibroblast cells were grown in a 96 well plate in DMEM media (available from Corning, N.Y.) supplemented with 10% Fetal Bovine Serum (FBS) and L-glutamine (0.07×10^5 cells/plate). After reaching about 75% confluence, cells were transferred into DMEM media without FBS and incubated for 4-6 hours. Next, cells were treated with a peptide at 0.00001%, 0.0001%, 0.001% final concentration in DMEM media without FBS for 48 h. After treatment, the media were collected and cell viability was measured using MTT. The amount of collagen secreted was tested in the media using HTRF human pro-collagen I kit (available from Cisbio Inc., Bedford, Mass.). The amount of secreted Hyaluronic Acid (HA) was tested in the media using HA Elisa kit (available from Corgenix, Broomfield, Colo.).
# (§2) The results are summarized in Table 12 below as percent change of pro-collagen I and/or HA production relative to vehicle control (peptide concentrations provided in parentheses) using the following keys: […]
# [2] = test system: Human dermal fibroblast cells; test: Secreted hyaluronic acid (HA) in the media (HA Elisa kit) after 48 h peptide treatment; format: cell-based; details: percent change relative to vehicle control
# Procedure: as §1, §2
# [3] = peptide tested at 0.00001%, 0.0001%, 0.001%, concentration not given
Substance,"Increase in Pro-Collagen I Production [1, 3]","Increase in HA Production [2, 3]",Increase in Pro-Collagen I Production ([1]; peptide concentration 0.001%),Increase in HA Production ([2]; peptide concentration 0.001%),Increase in HA Production ([2]; peptide concentration 0.0001%)
LENTKRS (listed as Homo sapiens),0 (0: <10%),0 (0: <20%),,,
QILSKLRL (listed as Homo sapiens),,,+(0.001%) (+: 10-30%),,
GDALQPE (listed as Homo sapiens),0 (0: <10%),0 (0: <20%),,,
LRLK (listed as Homo sapiens),0 (0: <10%),,,+(0.001%) (+: 20-50%),
QPED (listed as Homo sapiens),0 (0: <10%),0 (0: <20%),,,
MVV (listed as Homo sapiens),0 (0: <10%),,,,+(0.0001%) (+: 20-50%)
